Test results taken from US7495027B2, “3-aryl-4-hydroxyfuranone compounds and the human and animal health use thereof” (Wyeth, priority 2003, dated 2009).
≈ marks a conversion by molar mass, not a printed value. Like-named read-outs stand apart in the source and are kept apart here.

Legend:
Streptococci = experiment: Minimum inhibitory concentration, microdilution broth method, streptococci; type: cell-based; details: Mueller-Hinton broth with 5% horse blood, 18-22 hours at 35° C.; for MIC: S. pneumo GC 1894
Summary of the method: (§1)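 Broth microdilution MIC per NCCLS M7-A5. Staphylococci and enterococci tested in Mueller-Hinton broth; streptococci in Mueller-Hinton broth with 5% lysed horse blood. Strains include clinical isolates resistant to methicillin, penicillin and/or vancomycin.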

[1] = molecular target: T1, S. aureus Enopyruvyl-UPD-N-acetylglucosamine reductase, Mur B (Staphylococcus aureus, UniProt P61431); experiment: biochemical; details: (S) S. aureus enzyme; for IC50: read-out: MurB IC50 (converted)
T1 sequence (P61431 1-307): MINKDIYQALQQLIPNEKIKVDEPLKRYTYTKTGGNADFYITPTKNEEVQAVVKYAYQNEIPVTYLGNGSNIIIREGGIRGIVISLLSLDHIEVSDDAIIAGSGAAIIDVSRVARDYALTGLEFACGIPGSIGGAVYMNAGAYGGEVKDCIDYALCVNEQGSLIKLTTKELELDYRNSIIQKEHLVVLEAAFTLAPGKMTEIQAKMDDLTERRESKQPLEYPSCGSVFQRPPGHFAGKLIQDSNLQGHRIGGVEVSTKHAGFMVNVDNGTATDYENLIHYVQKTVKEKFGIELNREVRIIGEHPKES

enterococci = experiment: Minimum inhibitory concentration, microdilution broth method, enterococci; type: cell-based; details: Mueller-Hinton broth, 18-22 hours at 35° C.; for MIC: Enterococcus faecalis
Summary of the method: as §1

[2] = E. faecalis GC 2242, read-out: MIC E. faecalis GC 2242
[3] = E. faecalis GC 4555, read-out: MIC E. faecalis GC 4555

| SMILES | MIC S. pneumo GC 1894 (Streptococci) [µg/mL] | MurB IC50 [1] | MIC E. faecalis GC 2242 (enterococci; E. faecalis GC 2242) [µg/mL] | MIC E. faecalis GC 4555 (enterococci; E. faecalis GC 4555) [µg/mL] | MIC (Streptococci) [µg/mL] | IC50 [1] [µM] | MIC (enterococci; [2]) [µg/mL] | MIC (enterococci; [3]) [µg/mL] |
| --- | --- | --- | --- | --- | --- | --- | --- | --- |
| Cc1cc(C=C2OC(=O)C(c3cc(Cl)cc(Cl)c3)=C2O)ccc1-c1ccccc1Cl [Example 31] | 0.25 (≈ 0.546 µM) | 2 (E); 2 (S) μg/mL | 1 (≈ 2.18 µM) | 2 (≈ 4.37 µM) |  |  |  |  |
| COc1cc(/C=C2\OC(=O)C(c3cccc(Cl)c3)=C2O)ccc1-c1ccccc1C(F)(F)F [Example 32] |  |  |  |  | 0.5 (≈ 1.06 µM) | 6.34 | 4 (≈ 8.46 µM) | 8 (≈ 16.9 µM) |
| COc1cc(/C=C2\OC(=O)C(c3cc(Cl)cc(Cl)c3)=C2O)ccc1-c1ccccc1C(F)(F)F [Example 33] |  |  |  |  | 0.5 (≈ 0.986 µM) | 3.94 | 1 (≈ 1.97 µM) | 2 (≈ 3.94 µM) |
| O=C1O/C(=C\c2ccc(N3CCOCC3)c(F)c2)C(O)=C1c1cc(Cl)cc(Cl)c1 [Example 34] | 4 (≈ 9.17 µM) | 6 (S) μg/mL | 64 (≈ 147 µM) | 64 (≈ 147 µM) |  |  |  |  |
| COc1ccc(C=C2OC(=O)C(c3cccc(Cl)c3)=C2O)c2ccccc12 [Example 35] | 2 (≈ 5.28 µM) | 6 (S) μg/mL | 8 (≈ 21.1 µM) | 16 (≈ 42.2 µM) |  |  |  |  |
| COc1ccc(/C=C2\OC(=O)C(c3cc(Cl)cc(Cl)c3)=C2O)c2ccccc12 [Example 36] |  |  |  |  | 1 (≈ 2.42 µM) | 7.26 | 4 (≈ 9.68 µM) | 8 (≈ 19.4 µM) |
| O=C1O/C(=C\c2ccc(N3CCOCC3)c3ccccc23)C(O)=C1c1cccc(Cl)c1 [Example 37] |  |  |  |  | 8 (≈ 18.4 µM) | 23 | 16 (≈ 36.9 µM) | 32 (≈ 73.8 µM) |
| O=C1O/C(=C\c2ccc(N3CCOCC3)c3ccccc23)C(O)=C1c1cc(Cl)cc(Cl)c1 [Example 38] |  |  |  |  | 1 (≈ 2.14 µM) | 17.1 | 16 (≈ 34.2 µM) | 32 (≈ 68.3 µM) |
| Cc1cc(/C=C2\OC(=O)C(c3cc(Cl)cc(Cl)c3)=C2O)ccc1-c1ccccc1OS(C)(=O)=O [Example 39] | 1 (≈ 1.93 µM) | 4 µg/mL | 4 (≈ 7.73 µM) | 8 (≈ 15.5 µM) |  |  |  |  |
| CN(C)c1ccc(/C=C2\OC(=O)C(c3ccc(Cl)cc3)=C2O)c2ccccc12 [Example 78] |  |  |  |  | 2 (≈ 5.1 µM) | 33.2 | 64 (≈ 163 µM) | 64 (≈ 163 µM) |
| CN(C)c1ccc(/C=C2\OC(=O)C(c3cc(Cl)cc(Cl)c3)=C2O)c2ccccc12 [Example 79] |  |  |  |  | 0.5 (≈ 1.17 µM) | 2.35 | 4 (≈ 9.38 µM) | 8 (≈ 18.8 µM) |
| CN(C)c1ccc(C=C2OC(=O)C(c3cc(Cl)cc(Cl)c3)=C2O)c2ccccc12 [Example 80] | 1 (≈ 2.35 µM) | 1 µg/mL | 4 (≈ 9.38 µM) | 8 (≈ 18.8 µM) |  |  |  |  |
| CN(C)c1ccc(/C=C2\OC(=O)C(c3ccc(C(F)(F)F)cc3)=C2O)c2ccccc12 [Example 81] |  |  |  |  | 1 (≈ 2.35 µM) | 35.3 | 16 (≈ 37.6 µM) | 32 (≈ 75.2 µM) |
| O=C1O/C(=C\c2ccccc2-c2cccc(Cl)c2)C(O)=C1c1cccc(Cl)c1 [Example 140] |  |  |  |  | 1 (≈ 2.44 µM) | 7.33 | 4 (≈ 9.77 µM) | 4 (≈ 9.77 µM) |
| O=C1O/C(=C\c2ccccc2-c2ccc(Cl)c(Cl)c2)C(O)=C1c1ccc(Cl)c(Cl)c1 [Example 141] |  |  |  |  | < 0.125 | 4.18 | 0.5 (≈ 1.05 µM) | 1 (≈ 2.09 µM) |
| O=C1O/C(=C\c2cc(C(F)(F)F)ccc2Cl)C(O)=C1c1ccc(N2CCOCC2)c(F)c1 [Example 142] | 8 (≈ 17 µM) | 21 µg/mL | >128 | >128 |  |  |  |  |
| O=C1O/C(=C\c2ccc(-c3ccccc3)cc2)C(O)=C1c1csc2ccccc12 [Example 143] |  |  |  |  | 1 (≈ 2.52 µM) | 10.1 | 4 (≈ 10.1 µM) | 32 (≈ 80.7 µM) |
| O=C1O/C(=C\c2ccc(-c3ccccc3)cc2)C(O)=C1c1cccs1 [Example 144] |  |  |  |  | 2 (≈ 5.77 µM) | 28.9 | 32 (≈ 92.4 µM) | > 128 |
